Experimental data taken from paper PMC11009625, “Antibiotic class with potent in vivo activity targeting lipopolysaccharide synthesis in Gram-negative bacteria” (Proceedings of the National Academy of Sciences of the …, 2024).
Converted amounts (≈) assume the structure as drawn. Like-named read-outs stand apart in the source and are kept apart here.

Tests used:
[1] = system: K. pneumoniae SSI #3010 (EN124); assay: Neutropenic mouse peritonitis model, K. pneumoniae; type: in vivo, mice; conditions: single sc dose; for ED50: Klebsiella pneumoniae; for ED50 / 1-log effective dose, blood, K. pneumoniae / 2-log effective dose, blood, K. pneumoniae / 1-log effective dose, peritoneal fluid, K. pneumoniae / 2-log effective dose, peritoneal fluid, K. pneumoniae: modeled efficacy curves; for Efficacy against K. pneumoniae compared with ciprofloxacin (13 mg/kg): doses ≥50 mg/kg, mouse peritonitis
Method: PK and safety studies were done the Latvian Institute for Organic Synthesis (Riga, Latvia) and in vivo efficacy studies were done at Statens Serum Institut (Copenhagen, Denmark). Assays were done in accordance with the relevant permits at the respective sites (SI Appendix). For PK studies, plasma samples were taken from mice dosed subcutaneously and the samples were analyzed by UPLC/MS/MS. For in vivo efficacy studies, neutropenic mice were infected intraperitoneally with 10^6 bacteria and treated with subcutaneously with test compounds 1 h after infection. The mice were euthanized 4 h after treatment and serially diluted samples of blood and peritoneal fluid were plated onto blood agar plates. Complete experimental details available in SI Appendix.
Lantmännen) and water. The experimental procedures were performed in accordance with the guidelines of the European Community and local laws and policies (Directive 2010/63/EU), and all of the procedures were approved by Food and Veterinary Service, Riga, Latvia. […]
Bacterial strains and inoculum. E. coli EC 106-09 (EN122) and K. pneumoniae SSI #3010 (EN124) are clinical isolates from Denmark. Bacterial suspensions for inoculation of mice were prepared […]
at room temperature from fresh overnight cultures on 5% blood agar plates produced by SSI diagnostica (Copenhagen Denmark). The inoculum was prepared immediately before inoculation by suspending colonies in sterile 0.9% saline to an optical density of 0.13 at 540 nm, giving a density of 10^8 CFU/ml and further diluted in 0.9% saline to 2 x 10^6 CFU/ml before injecting into the mice. For each experiment, the size of the inoculum was determined by making ten-fold dilutions in 0.9% saline, of which 20 µl was plated on 5% blood agar plates with subsequent counting of colonies after incubation overnight at 35°C in ambient air.
Mice. Outbred female CD-1 mice 26-30 gram (Envigo, Netherlands) were housed at the animal facility at Statens Serum Institut. The temperature was 22 °C +/- 2 °C and the humidity was 55 +/- 10%. The mice were housed in individually ventilated type 3 macrolone cages with bedding from Tapvei. The air changes per hour were approximately 8-12 times (70-73 times per hours inside cages), and light/dark period was in 12-hours interval of 6 a.m.- 6 p.m./6 p.m – 6 a.m.
The mice had ad libitum access to domestic quality drinking water and food Teklad Global diet 2916C-Envigo) and occasionally peanuts and sunflower seeds (Køge Korn A/S). Further, the animals were offered Enviro-Dri nesting material and cardboard houses (Bio-serv).
Mouse peritonitis model. The mice were rendered neutropenic by injecting 0.5 mL cyclophosphamide solution, 200 mg/kg intraperitoneally at 4 days and 100 mg/kg at 1 day prior to inoculation. 1 h before inoculation, mice were treated orally with […] Nurofen (20 mg ibuprofen/mL corresponding to approximately 30 mg/kg) as a pain relief. Inoculation was performed by intraperitoneal injection of 0.5 ml of the bacterial suspension containing log 6
CFU. The mice were treated subcutaneously with 0.25 – 0.30 mL based on weight, in the neck region with a single dose of compound at 1 hour post inoculation. Mice were monitored for clinical signs of discomfort. 4 h after treatment the mice were anesthetized and blood was collected by heart puncture into EDTA tubes and thereafter mice were euthanized by cervical dislocation and peritoneal washes were performed by injecting 2 ml of sterile saline intraperitoneally, followed by gentle massage of the abdomen and opening the peritoneum to collect fluid. Full blood and peritoneal fluids were serially diluted (ten-fold dilutions) and 20 µl was plated on blood agar plates produced at the SSI diagniostica (Copenhagen, Denmark) with subsequent counting of colonies after incubation overnight at 35°C in ambient. All animal experiments were approved by the National Committee of Animal Ethics – Animal Experiment Inspectorate under the Danish Ministry of Justice.
Statistical analyses. […]

[2] = system: K. pneumoniae ATCC 13883 (EN0006) and selected mutants; assay: MIC of mutants from frequency of resistance experiments; type: cell-based; conditions: for MIC EN0006: ATCC 13883 parent; for MIC EN0006 / MIC CH10219: lpxH wild-type; for MIC CH10218: lpxH F128L; for MIC CH10218 / MIC CH10220 / MIC CH10221 / MIC CH10219: selected against EBL-3647; for MIC CH10206 / MIC CH10220: lpxH F141S; for MIC CH10206 / MIC CH10205 / MIC CH10207: selected against EBL-3599; for MIC CH10205 / MIC CH10207 / MIC CH10221: lpxH R80H; for MIC CH10219: ramR A40V
Method: (§1) Minimum inhibitory concentration (MIC) values were determined according to the Clinical Laboratory Standards Institute guidelines. Frequency of resistance was determined by plating ~5 × 10^8 bacterial cells on agar-solidified media plates containing test compound at concentrations corresponding to four times the measured solid-media MIC of the strains. Colonies were counted after 24 h, restreaked onto media containing the same concentration of compound, and the MIC remeasured against the assayed compound. Genomic DNA from isolated clones was sequenced by paired-end sequencing on an Illumina MiSeq device. Complete experimental details available in SI Appendix. […]
(§2) Minimum inhibitory concentration (MIC) determination. Broth microdilution and agar dilution MIC assays were conducted according to CLSI guidelines (M07-2012). Appropriate inoculation suspension density was assessed using a Sensititre Nephelometer with a Sensititre 0.5 […]
(§3) McFarland Standard. […]
Frequency of Resistance. Frequency of resistance was assessed by spread plating between […] cfu of a freshly-grown culture of the strain of interest on plates containing a concentration of compound corresponding to 4 times the MIC of the strain (as determined by agar-dilution MIC). Serial dilutions of the same cultures were plated on non-selective media to determine the number of cells plated. The frequency of resistance was determined by dividing the number of colonies obtained on the selective plates after 24 hours of growth by the calculated total population plated. Typically 4 independently grown cultures were used to initiate 4 separate experiments, and the total combined number of obtained colonies and plated populations were used for calculations. Isolated colonies from selection plates were re-streaked on an additional plate containing the same concentration of compound used in the original selection. Clones were saved at -80 °C for subsequent analysis.
Whole-genome sequencing and data analysis. Genomic DNA of selected clones was prepared using an Epicentre MasterPure Complete DNA Purification Kit. Whole-genome sequencing libraries were prepared using an Illumina Nextera XT Library Preparation Kit. The libraries were sequenced using an Illumina MiSeq device with a V3 600-cycle reagent kit. Whole-genome sequencing data was analyzed using CLC Genomics Workbench Version 11. To determine the genotype of MDR strains from the ENABLE strain collection, de novo assembled contigs were […]

[3] = system: clinical MDR K. pneumoniae isolates; assay: MIC, clinical multi-drug resistant K. pneumoniae isolates; type: cell-based; conditions: Klebsiella pneumoniae
Method: as §1, §2, §3
To determine the […]
genotype of MDR strains from the ENABLE strain collection, de novo assembled contigs were […]

[4] = blood, read-out: ED50, blood, K. pneumoniae
[5] = peritoneal fluid, read-out: ED50, peritoneal fluid, K. pneumoniae
[6] = read-out: MIC K. pneumoniae EN0140
[7] = read-out: MIC K. pneumoniae EN0142
[8] = read-out: MIC K. pneumoniae EN0143
[9] = read-out: MIC K. pneumoniae EN0144
[10] = read-out: MIC K. pneumoniae EN0145
[11] = read-out: MIC K. pneumoniae EN0233
[12] = read-out: MIC K. pneumoniae EN0245
[13] = read-out: MIC K. pneumoniae EN0504

Structure (SMILES)	ED50 [1, 4] [mg/kg]	ED50 [1, 5] [mg/kg]	Efficacy against K. pneumoniae compared with ciprofloxacin (13 mg/kg) [1]	1-log effective dose, blood, K. pneumoniae ([1]; blood) [mg/kg]	2-log effective dose, blood, K. pneumoniae ([1]; blood) [mg/kg]	1-log effective dose, peritoneal fluid, K. pneumoniae ([1]; peritoneal fluid) [mg/kg]	2-log effective dose, peritoneal fluid, K. pneumoniae ([1]; peritoneal fluid) [mg/kg]	MIC EN0006 [2] [µg/mL]	MIC CH10218 [2] [µg/mL]	MIC CH10206 [2] [µg/mL]	MIC CH10220 [2] [µg/mL]	MIC CH10205 [2] [µg/mL]	MIC CH10207 [2] [µg/mL]	MIC CH10221 [2] [µg/mL]	MIC CH10219 [2] [µg/mL]	MIC [3, 6] [µg/mL]	MIC [3, 7] [µg/mL]	MIC [3, 8] [µg/mL]	MIC [3, 9] [µg/mL]	MIC [3, 10] [µg/mL]	also measured
Cc1cc(C#N)nc(N2CCN(S(=O)(=O)c3ccc(NC(=O)c4cc(CNCCCN)ccc4N(C)S(C)(=O)=O)cc3)CC2)n1.Cl.Cl [EBL-3599]	20.2	19.8	efficacy similar to ciprofloxacin	20.2	28	20.4	30.7	1	64	> 64	> 64	32	32	> 64	8	1	2	2	2	4	MIC [3, 11]: 4 µg/mL; MIC [3, 12]: 8 µg/mL; MIC [3, 13]: 4 µg/mL
Cc1cc(C#N)nc(N2CCN(S(=O)(=O)c3ccc(NC(=O)c4cc(CN5CC(CN)C5)ccc4N(C)S(C)(=O)=O)cc3)CC2)n1 [EBL-3647]	21	21	efficacy similar to ciprofloxacin	21	27	22.8	37.3	1	32	> 64	> 64	32	32	> 64	8	1 (≈ 1.5 µM)	2 (≈ 2.99 µM)	2 (≈ 2.99 µM)	2 (≈ 2.99 µM)	4 (≈ 5.99 µM)	MIC [3, 11]: 4 µg/mL (≈ 5.99 µM); MIC [3, 12]: 4 µg/mL (≈ 5.99 µM); MIC [3, 13]: 4 µg/mL (≈ 5.99 µM)
